This note sets out measurements from publication PMC10786919, “Design-rules for stapled peptides with in vivo activity and their application to Mdm2/X antagonists” (Nature Communications, 2024).

Data set [1] can be described thus: Lactate dehydrogenase (LDH) release assay. It counts as cell-based. As to conditions: LDH: Cytotoxicity assay EC50. The gist of the method:
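HCT116 cells stably carrying a p53-responsive β-lactamase reporter were seeded at 8000 cells per well with a final DMSO level of 0.5%. Membrane integrity was assessed by lactate dehydrogenase release using a homogeneous fluorometric kit. Values are geometric means of at least three biological replicates.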

The nature of data set [2]: Solubility assay (kinetic solubility, PBS pH 7). It counts as physicochemical. As to conditions: pH 7, PBS; for solubility kinetic: pH 7, aqueous buffer, kinetic from dmso stock, read-out: Solubility. The gist of the method: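 Reference standards were made by diluting the 10 mM stock to 100 µM in acetonitrile:methanol:DMSO 10:80:10. Solubility in µM was calculated as the sample peak area divided by the standard peak area, multiplied by the standard concentration.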

Data set [3] deals with Ca Ski cell line. As to conditions: 72 h. The protocol: (§1) The medium for CellSensor™ p53RE-bla HCT-116 cells was McCoy’s 5 A Medium (GIBCO16600-002) supplied with 10% FBS (Hyclone, SH30406.05), 100 U/100ug/ml of Pen/Strep (SolarBio, P1400) and 5 μg/ml of blasticidin (GIBCO, A11139). The medium for Ca Ski cells was RPMI1640 (Hyclone, SH3080901B) supplied with 10% FBS and 100 U/100ug/ml of Pen/Strep. All cells were kept in humidified incubators with 5% CO2 at 37 °C. Culture media was changed after one day of subculturing and cells were passed again when there was 70–80% confluence. One day before the assay, the cells were trypsinized, collected, counted and viability was determined. […] The plates were kept in humidified incubators with 5% CO2 at 37 °C overnight. Compounds were prepared as a 10 point, 3x serial dilution in 100% DMSO, starting from a top concentration of 10 mM. […] At the end of the incubation the assay plate was equilibrated at room temperature for approximately 30 minutes prior to the addition of 25 uL of CellTiter-Glo® 2.0 Reagent. The assay plate was mixed for 2 minutes on an orbital shaker to induce cell lysis. Next, the plate was incubated at room temperature for 10 minutes to stabilize the luminescent signal prior to recording the luminescence on a plate reader.

For data set [4], the system named is CellSensor p53RE-bla HCT-116 Cell Line. As to conditions: 72 h. The protocol:
as §1

A short description of data set [5]: in vitro. As to conditions: Nanoclick permeability assay EC50. In outline:
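Azido-peptide permeability was read as loss of NanoBRET signal (donor 450 nm, acceptor 610 nm) after adding NanoBret618-azide at 10 μM final.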

Data set [6] can be described thus: physchem.
Data set [7] is described as follows: Experimental LogD (partition coefficient). As to conditions: not stated, Partition Coeff LogD.

SMILES strings stand for the structures. ≈ marks a conversion by molar mass, not a printed value. Positions of bridges follow the written chain, without caps; N, C: chain ends. Non-standard residues stand in square brackets, D forms with d. Residues, ends and D or L forms follow the SMILES beside them. Lys(N3) = [N-]=[N+]=NCCCC[C@H](N)C(=O)O; R8 = C=CCCCCCC[C@@](C)(N)C(=O)O; Cba = N[C@@H](CC1CCC1)C(=O)O; S5 = C=CCCC[C@](C)(N)C(=O)O; βAla = NCCC(=O)O

What is called EC50 is the midpoint of the concentration-response curve. High values mean a need for much substance, low ones an effect from little substance. A word on the logD: it is the decadic logarithm of the distribution of all forms, ionised or not, between an organic phase and buffer at a given pH. Low values mean a more hydrophilic compound, high ones a more lipophilic compound. Turning to `CC(=O)N[C@@H](CCCCN=[N+]=[N-])C(=O)NCCC(=O)N[C@@H](CC(C)C)C(=O)N[C@@H](CCC(=O)O)C(=O)N[C@@H](Cc1ccccc1)C(=O)N[C@]1(C)CCCCCCC=CCCC[C@@](C)(C(=O)N[C@@H](CO)C(=O)N[C@@H](C)C(=O)N[C@@H](C)C(N)=O)NC(=O)[C@H](CC2CCC2)NC(=O)[C@H](CCC(N)=O)NC(=O)[C@H](C)NC(=O)[C@H](Cc2c[nH]c3ccccc23)NC(=O)[C@H](Cc2ccc(O)cc2)NC(=O)[C@H](CCC(=O)O)NC1=O` [MP-179], the results for the EC50 in data set [1], in data set [3] and in data set [4] were greater than 50 µM, greater than 49.8 µM and 13.6 µM, respectively. The solubility kinetic in data set [2] is 102 µM (≈ 205 µg/mL). In addition, the cell entry EC50 in data set [5] came out at 0.173 µM. Moreover, the EPSA in data set [6] was 243 A^2. Besides, the logD in data set [7] was determined as 2.5.
Consider `CC(=O)N[C@@H](CCCCN=[N+]=[N-])C(=O)NCCC(=O)N[C@@H](CC(C)C)C(=O)N[C@H](C(=O)N[C@@H](Cc1ccccc1)C(=O)N[C@]1(C)CCCCCCC=CCCC[C@@](C)(C(=O)N[C@@H](CO)C(=O)N[C@@H](C)C(=O)N[C@@H](C)C(N)=O)NC(=O)[C@H](CC2CCC2)NC(=O)[C@H](CCC(=O)O)NC(=O)[C@H](C)NC(=O)[C@H](Cc2c[nH]c3ccccc23)NC(=O)[C@H](Cc2ccc(O)cc2)NC(=O)[C@H](CCC(=O)O)NC1=O)[C@@H](C)O` [MP-181], for which the EC50 in data set [1] is greater than 50 µM; in data set [3] it was greater than 49.8 µM; in data set [4] it was 4.64 µM. In addition, the solubility kinetic in data set [2] was 179 µM (≈ 353 µg/mL). For the same compound, in data set [5], the cell entry EC50 was 0.304 µM. Besides, the EPSA in data set [6] came out at 249 A^2. For the same compound, the log distribution coefficient (logD) in data set [7] came to 2.74.
`CC(=O)N[C@@H](CCCCN=[N+]=[N-])C(=O)NCCC(=O)N[C@@H](CC(C)C)C(=O)N[C@H](C(=O)N[C@@H](Cc1ccccc1)C(=O)N[C@]1(C)CCCCCCC=CCCC[C@@](C)(C(=O)N[C@@H](CCC(=O)O)C(=O)N[C@@H](C)C(=O)N[C@@H](C)C(N)=O)NC(=O)[C@H](CC2CCC2)NC(=O)[C@H](CCC(N)=O)NC(=O)[C@H](C)NC(=O)[C@H](Cc2c[nH]c3ccccc23)NC(=O)[C@H](Cc2ccc(O)cc2)NC(=O)[C@H](CCC(=O)O)NC1=O)[C@@H](C)O` [MP-182]: the EC50 in data set [1] was greater than 50 µM; in data set [3] it was greater than 49.8 µM; in data set [4] it was 1.31 µM. Moreover, in data set [2], the solubility kinetic stood at 163 µM (≈ 328 µg/mL). Besides, the cell entry EC50 in data set [5] is 0.223 µM. This compound gave an EPSA in data set [6] of 251 A^2. In data set [7], this compound came in with a logD of 2.5.
In the case of `CC(=O)N[C@@H](CCCCN=[N+]=[N-])C(=O)NCCC(=O)N[C@@H](Cc1c[nH]c2ccccc12)C(=O)N[C@H](C(=O)N[C@@H](Cc1ccccc1)C(=O)N[C@]1(C)CCCCCCC=CCCC[C@@](C)(C(=O)N[C@@H](CO)C(=O)N[C@@H](C)C(=O)N[C@@H](C)C(N)=O)NC(=O)[C@H](CC2CCC2)NC(=O)[C@H](CCC(N)=O)NC(=O)[C@H](C)NC(=O)[C@H](Cc2c[nH]c3ccccc23)NC(=O)[C@H](Cc2ccc(O)cc2)NC(=O)[C@H](CCC(=O)O)NC1=O)[C@@H](C)O` [MP-183] (Ac-[Lys(N3)][βAla]WTF[R8]EYWAQ[Cba][S5]SAA-NH2; staple 6-13), the EC50 in data set [1] is greater than 50 µM; in data set [3], 38.5 µM; in data set [4] it was 5.74 µM. Further, the solubility kinetic in data set [2] was 19 µM (≈ 38.8 µg/mL). The cell entry EC50 in data set [5] came to 0.229 µM. This compound gave an EPSA in data set [6] of 247 A^2. This compound also yielded a logD in data set [7] of 3.04.
In the case of `CC(=O)N[C@@H](CCCCN=[N+]=[N-])C(=O)NCCC(=O)N[C@@H](CC(C)C)C(=O)N[C@H](C(=O)N[C@@H](Cc1ccccc1)C(=O)N[C@]1(C)CCCCCCC=CCCC[C@@](C)(C(=O)N[C@@H](CO)C(=O)N[C@@H](C)C(=O)N[C@@H](C)C(N)=O)NC(=O)[C@H](CC2CCC2)NC(=O)[C@H](Cc2c[nH]c3ccccc23)NC(=O)[C@H](C)NC(=O)[C@H](Cc2c[nH]c3ccccc23)NC(=O)[C@H](Cc2ccc(O)cc2)NC(=O)[C@H](CCC(=O)O)NC1=O)[C@@H](C)O` [MP-187] (Ac-[Lys(N3)][βAla]LTF[R8]EYWAW[Cba][S5]SAA-NH2; staple 6-13), the EC50 in data set [1] is greater than 50 µM; in data set [3], greater than 49.8 µM; in data set [4], 7.27 µM. Also, in data set [2], the solubility kinetic came out at 3.5 µM (≈ 7.1 µg/mL). Also, in data set [5], the cell entry EC50 was found to be 0.247 µM. This compound also returned an EPSA in data set [6] of 242 A^2. For the same compound, the logD in data set [7] stood at 3.14.
Consider `CC(=O)N[C@@H](CCCCN=[N+]=[N-])C(=O)NCCC(=O)N[C@@H](CC(C)C)C(=O)N[C@H](C(=O)N[C@@H](Cc1ccccc1)C(=O)N[C@]1(C)CCCCCCC=CCCC[C@@](C)(C(=O)N[C@@H](Cc2c[nH]c3ccccc23)C(=O)N[C@@H](C)C(=O)N[C@@H](C)C(N)=O)NC(=O)[C@H](CC2CCC2)NC(=O)[C@H](CCC(N)=O)NC(=O)[C@H](C)NC(=O)[C@H](Cc2c[nH]c3ccccc23)NC(=O)[C@H](Cc2ccc(O)cc2)NC(=O)[C@H](CCC(=O)O)NC1=O)[C@@H](C)O` [MP-188] (Ac-[Lys(N3)][βAla]LTF[R8]EYWAQ[Cba][S5]WAA-NH2; staple 6-13), for which the figures for the EC50 in data set [1], in data set [3] and in data set [4] were greater than 50 µM, 30.4 µM and 4.79 µM, respectively. For the same compound, the solubility kinetic in data set [2] is 50 µM (≈ 103 µg/mL). Also, the cell entry EC50 in data set [5] came out at 0.374 µM. In addition, the EPSA in data set [6] is 249 A^2. In addition, in data set [7], the logD worked out at 3.33.
Take `CC(=O)N[C@@H](CCCCN=[N+]=[N-])C(=O)NCCC(=O)N[C@@H](CCCNC(=N)N)C(=O)N[C@H](C(=O)N[C@@H](Cc1ccccc1)C(=O)N[C@]1(C)CCCCCCC=CCCC[C@@](C)(C(=O)N[C@@H](CO)C(=O)N[C@@H](C)C(=O)N[C@@H](C)C(N)=O)NC(=O)[C@H](CC2CCC2)NC(=O)[C@H](CCC(N)=O)NC(=O)[C@H](C)NC(=O)[C@H](Cc2c[nH]c3ccccc23)NC(=O)[C@H](Cc2ccc(O)cc2)NC(=O)[C@H](CCC(=O)O)NC1=O)[C@@H](C)O` [MP-552] (Ac-[Lys(N3)][βAla]RTF[R8]EYWAQ[Cba][S5]SAA-NH2; staple 6-13): the EC50 in data set [1] was greater than 50 µM; in data set [3] it was 39.9 µM; in data set [4] it was 4.32 µM. The solubility kinetic in data set [2] was 2 µM (≈ 4.03 µg/mL). The cell entry EC50 in data set [5] was 0.0896 µM. The EPSA in data set [6] is 230 A^2. Also, in data set [7], the logD stood at 2.81.
For `CC(=O)N[C@@H](CCCCN=[N+]=[N-])C(=O)NCCC(=O)N[C@@H](CC(C)C)C(=O)N[C@@H](CCCNC(=N)N)C(=O)N[C@@H](Cc1ccccc1)C(=O)N[C@]1(C)CCCCCCC=CCCC[C@@](C)(C(=O)N[C@@H](CO)C(=O)N[C@@H](C)C(=O)N[C@@H](C)C(N)=O)NC(=O)[C@H](CC2CCC2)NC(=O)[C@H](CCC(N)=O)NC(=O)[C@H](C)NC(=O)[C@H](Cc2c[nH]c3ccccc23)NC(=O)[C@H](Cc2ccc(O)cc2)NC(=O)[C@H](CCC(=O)O)NC1=O` [MP-553] (Ac-[Lys(N3)][βAla]LRF[R8]EYWAQ[Cba][S5]SAA-NH2; staple 6-13), the EC50 in data set [1] is greater than 50 µM; in data set [3], greater than 49.8 µM; in data set [4] it was 6.78 µM. Further, in data set [2], the Solubility result is “Poorly Behaved”. Also, the cell entry EC50 in data set [5] stood at 0.174 µM. Further, the EPSA in data set [6] is 232 A^2. The same compound returned a logD in data set [7] of 2.86.
